In brackets after ≈: the same amount, converted by molar mass. Like-named read-outs stand apart in the source and are kept apart here.
What was measured:
[1] = test system: Corynebacterium pyogenes C-21; assay: In vitro antibacterial activity (MIC, agar dilution method); assay type: cell-based
Description: (§1) The minimum inhibitory concentrations (MIC, μg/ml) of the following compounds in vitro were measured by the agar dilution method of [Chemotherapy, Vol. 22, No. 16, page 1126 (1974)].

[2] = test system: Enterobacter cloacae P-2540; assay: as above; assay type: cell-based
Description: as §1

[3] = test system: Escherichia coli NIHJ JC-2; assay: as above; assay type: cell-based
Description: as §1

[4] = test system: Escherichia coli P-140a; assay: as above; assay type: cell-based; conditions: read-out: minimum inhibitory concentration (MIC)
Description: as §1

[5] = test system: Escherichia coli P-5101; assay: as above; assay type: cell-based
Description: as §1

[6] = test system: Klebsiella pneumoniae No. 13; assay: as above; assay type: cell-based
Description: as §1

[7] = test system: Proteus mirabilis P-2381; assay: as above; assay type: cell-based
Description: as §1

[8] = test system: Proteus morganii Kono; assay: as above; assay type: cell-based; conditions: Morganella morganii, read-out: minimum inhibitory concentration (MIC)
Description: as §1

[9] = test system: Pseudomonas aeruginosa No. 12; assay: as above; assay type: cell-based
Description: as §1

[10] = test system: Pseudomonas aeruginosa Tsuchiijima; assay: as above; assay type: cell-based; conditions: read-out: minimum inhibitory concentration (MIC)
Description: as §1

[11] = test system: Salmonella enteritidis No. 1891; assay: as above; assay type: cell-based; conditions: Salmonella enterica, read-out: minimum inhibitory concentration (MIC)
Description: as §1

[12] = test system: Salmonella typhimurium S-9; assay: as above; assay type: cell-based; conditions: Salmonella enterica, read-out: minimum inhibitory concentration (MIC)
Description: as §1

[13] = test system: Serratia marcescens IFO 3736; assay: as above; assay type: cell-based
Description: as §1

[14] = test system: Shigella flexneri 2a; assay: as above; assay type: cell-based; conditions: read-out: minimum inhibitory concentration (MIC)
Description: as §1

[15] = test system: Shigella flexneri 4a P-330; assay: as above; assay type: cell-based; conditions: 4AP330, read-out: minimum inhibitory concentration (MIC)
Description: as §1

[16] = test system: Staphylococcus aureus 209P JC-1; assay: as above; assay type: cell-based; conditions: read-out: minimum inhibitory concentration (MIC)
Description: as §1

[17] = test system: Staphylococcus aureus No. 50774; assay: as above; assay type: cell-based
Description: as §1

[18] = test system: Staphylococcus aureus No. 80; assay: as above; assay type: cell-based
Description: as §1

[19] = test system: Staphylococcus aureus Smith; assay: as above; assay type: cell-based; conditions: read-out: minimum inhibitory concentration (MIC)
Description: as §1

[20] = test system: Staphylococcus epidermidis No. 8; assay: as above; assay type: cell-based
Description: as §1

[21] = test system: Streptococcus faecalis P-2473; assay: as above; assay type: cell-based; conditions: Enterococcus faecalis, P2473, read-out: minimum inhibitory concentration (MIC)
Description: as §1

[22] = test system: Streptococcus pyogenes 65A; assay: as above; assay type: cell-based; conditions: read-out: minimum inhibitory concentration (MIC)
Description: as §1

[23] = test system: Escherichia coli P-5101; assay: In vivo efficacy against systemic infections in mice (intraperitoneal infection); set-up: species or system male mice (ddY); conditions: P5101, 168 h, po, twice, about 5 minutes and 6 hours after intraperitoneal infection, observed 7 days
Description: (§2) Each of the solutions was orally administered to mice infected with each of test organisms under the conditions described below, and the medium effective doses (ED50) obtained are shown in Table II. Male mice (ddY) weighing about 20 g (3) Escherichia coli P-5101: Intraperitoneal infection with about 9×10^6 cells per mouse suspended in trypto-soy broth with 4% mucin. Twice, about 5 minutes and 6 hours after infection. |Escherichia coli P-5101 for 7 days | The numerals in the table show ED50 (mg/kg). ED50 values were | calculated in accordance with the BehrensKaerber method (Arch. Exp. Path. | Pharm., 162, 480 (1931)). | po: oral administration.

[24] = test system: Pseudomonas aeruginosa No. 12; assay: as above; set-up: species or system male mice (ddY); conditions: NO.12, 168 h, po, twice, about 5 minutes and 6 hours after intraperitoneal infection, observed 7 days
Description: as §2, with “(4) Pseudomonas aeruginosa No. 12:” for “(3) Escherichia coli P-5101:”, “5×10^3” for “9×10^6”, “days |Pseudomonas aeruginosa No. 12” for “days”

[25] = Corynebacterium pyogenes, C21, read-out: minimum inhibitory concentration (MIC)
[26] = P2540, Enterobacter cloacae P-2540, agar dilution, read-out: minimum inhibitory concentration (MIC)
[27] = NIHJJC2, Escherichia coli NIHJ JC-2, agar dilution, read-out: minimum inhibitory concentration (MIC)
[28] = P140A, Escherichia coli P-140a, agar dilution
[29] = P5101, Escherichia coli P-5101, agar dilution, read-out: minimum inhibitory concentration (MIC)
[30] = Klebsiella pneumoniae No. 13, agar dilution, read-out: minimum inhibitory concentration (MIC)
[31] = P2381, Proteus mirabilis P-2381, agar dilution, read-out: minimum inhibitory concentration (MIC)
[32] = Proteus morganii Kono, agar dilution
[33] = Pseudomonas aeruginosa, NO.12, read-out: minimum inhibitory concentration (MIC)
[34] = Salmonella typhimurium S-9, agar dilution
[35] = IFO3736, Serratia marcescens IFO 3736, agar dilution, read-out: minimum inhibitory concentration (MIC)
[36] = Staphylococcus aureus, NO.50774, read-out: minimum inhibitory concentration (MIC)
[37] = Staphylococcus aureus No. 80, agar dilution, read-out: minimum inhibitory concentration (MIC)
[38] = Staphylococcus epidermidis No. 8, agar dilution, read-out: minimum inhibitory concentration (MIC)
[39] = C21, Corynebacterium pyogenes C-21, agar dilution, read-out: minimum inhibitory concentration (MIC)
[40] = Pseudomonas aeruginosa No. 12, agar dilution, read-out: minimum inhibitory concentration (MIC)
[41] = Pseudomonas aeruginosa Tsuchiijima, agar dilution
[42] = Salmonella enteritidis No. 1891, agar dilution
[43] = Staphylococcus aureus 209P JC-1, agar dilution
[44] = Staphylococcus aureus No. 50774, agar dilution, read-out: minimum inhibitory concentration (MIC)
[45] = Staphylococcus aureus Smith, agar dilution
[46] = Streptococcus pyogenes 65A, agar dilution
[47] = Enterobacter cloacae, P2540, read-out: minimum inhibitory concentration (MIC)
[48] = Escherichia coli, NIHJJC2, read-out: minimum inhibitory concentration (MIC)
[49] = Klebsiella pneumoniae, NO.13, read-out: minimum inhibitory concentration (MIC)
[50] = Serratia marcescens, IFO3736, read-out: minimum inhibitory concentration (MIC)
[51] = Staphylococcus aureus, NO.80, read-out: minimum inhibitory concentration (MIC)
[52] = Staphylococcus epidermidis, NO.8, read-out: minimum inhibitory concentration (MIC)
[53] = Escherichia coli, P5101, read-out: minimum inhibitory concentration (MIC)

| SMILES | MIC [2, 26] [µg/mL] | MIC [3, 27] [µg/mL] | MIC [4, 28] [µg/mL] | MIC [5, 29] [µg/mL] | MIC [6, 30] [µg/mL] | MIC [7, 31] [µg/mL] | MIC [8, 32] [µg/mL] | MIC [9, 33] [µg/mL] | MIC ([10]; Pseudomonas aeruginosa) [µg/mL] | MIC [12, 34] [µg/mL] | MIC [13, 35] [µg/mL] | MIC [14] [µg/mL] | MIC [15] [µg/mL] | MIC ([16]; Staphylococcus aureus, 209P) [µg/mL] | MIC [17, 36] [µg/mL] | MIC ([19]; Staphylococcus aureus) [µg/mL] | MIC [21] [µg/mL] | MIC ([22]; Streptococcus pyogenes, 65A) [µg/mL] | MIC [1, 39] [µg/mL] | MIC [11, 42] [µg/mL] | also measured |
| --- | --- | --- | --- | --- | --- | --- | --- | --- | --- | --- | --- | --- | --- | --- | --- | --- | --- | --- | --- | --- | --- |
| CCn1cc(C(=O)O)c(=O)c2ccc(N3CCCC3)nc21 [Compound A, 1-Ethyl-1,4-dihydro-4-oxo-7-(1-pyrrolidinyl)-1,8-naphthyridine-3-carboxylicacid] | > 200 | 25 (≈ 87 µM) | 3.13 (≈ 10.9 µM) | 50 (≈ 174 µM) | > 200 | > 200 | > 200 | > 200 | > 200 | 50 (≈ 174 µM) | > 200 | > 200 | 6.25 (≈ 21.8 µM) | 12.5 (≈ 43.5 µM) | 6.25 (≈ 21.8 µM) | 6.25 (≈ 21.8 µM) | > 200 | > 200 | – | – | MIC [1, 25]: > 200 µg/mL; MIC ([11]; ENTERITIDIS): 6.25 µg/mL (≈ 21.8 µM); MIC [18, 37]: 3.13 µg/mL (≈ 10.9 µM); MIC [20, 38]: 3.13 µg/mL (≈ 10.9 µM) |
| CCn1cc(C(=O)O)c(=O)c2cc(Cl)c(N3CCCC3)nc21 [Compound B, 6-Chloro-1-ethyl-1,4-dihydro-4-oxo-7-(1-pyrrolidinyl)-1,8-naphthyridine-3-carboxylic acid] | 50 (≈ 155 µM) | 50 (≈ 155 µM) | 50 (≈ 155 µM) | 50 (≈ 155 µM) | > 100 | > 100 | > 100 | – | – | 50 (≈ 155 µM) | > 100 | 50 (≈ 155 µM) | > 100 | – | – | – | > 200 | – | 50 (≈ 155 µM) | 25 (≈ 77.7 µM) | MIC [9, 40]: > 100 µg/mL; MIC [10, 41]: > 100 µg/mL; MIC [16, 43]: 12.5 µg/mL (≈ 38.8 µM); MIC [17, 44]: 6.25 µg/mL (≈ 19.4 µM); MIC [18, 37]: 6.25 µg/mL (≈ 19.4 µM); MIC [19, 45]: 6.25 µg/mL (≈ 19.4 µM); MIC [20, 38]: 3.13 µg/mL (≈ 9.73 µM); MIC [22, 46]: 50 µg/mL (≈ 155 µM) |
| CCn1cc(C(=O)O)c(=O)c2cc(F)c(N3CCCC3)nc21 [Compound C, 1-Ethyl-6-fluoro-1,4-dihydro-4-oxo-7-(1-pyrrolidinyl)-1,8-naphthyridine-3-carboxylic acid] | – | – | 0.78 (≈ 2.55 µM) | 0.78 (≈ 2.55 µM) | – | 6.56 (≈ 21.5 µM) | – | 3.13 (≈ 10.3 µM) | 3.13 (≈ 10.3 µM) | 0.78 (≈ 2.55 µM) | – | 1.56 (≈ 5.11 µM) | 3.13 (≈ 10.3 µM) | – | – | – | 6.25 (≈ 20.5 µM) | 3.13 (≈ 10.3 µM) | 0.78 (≈ 2.55 µM) | 0.39 (≈ 1.28 µM) | MIC [2, 47]: 1.56 µg/mL (≈ 5.11 µM); MIC [3, 48]: 1.56 µg/mL (≈ 5.11 µM); MIC [6, 49]: 1.56 µg/mL (≈ 5.11 µM); MIC [8]: 1.56 µg/mL (≈ 5.11 µM); MIC [13, 50]: 3.13 µg/mL (≈ 10.3 µM); MIC [16, 43]: 0.39 µg/mL (≈ 1.28 µM); MIC [17, 44]: 0.2 µg/mL (≈ 0.655 µM); MIC [18, 51]: 0.2 µg/mL (≈ 0.655 µM); MIC [19, 45]: 0.39 µg/mL (≈ 1.28 µM); MIC [20, 52]: 0.39 µg/mL (≈ 1.28 µM); ED50 [23]: > 50 mg/kg; ED50 [24]: > 100 mg/kg |
| CCn1cc(C(=O)O)c(=O)c2ccc(C)nc21 [Compound D, 1-Ethyl-1,4-dihydro-7-methyl-4-oxo-1,8-naphthyridine-3-carboxylic acid] | – | – | 1.56 (≈ 6.72 µM) | – | – | – | – | 200 (≈ 861 µM) | 200 (≈ 861 µM) | – | – | 6.25 (≈ 26.9 µM) | 3.13 (≈ 13.5 µM) | 100 (≈ 431 µM) | 50 (≈ 215 µM) | 25 (≈ 108 µM) | > 200 | > 200 | – | – | MIC [1, 25]: > 200 µg/mL; MIC [2, 47]: 6.25 µg/mL (≈ 26.9 µM); MIC [3, 48]: 12.5 µg/mL (≈ 53.8 µM); MIC [5, 53]: 3.13 µg/mL (≈ 13.5 µM); MIC [6, 49]: 12.5 µg/mL (≈ 53.8 µM); MIC ([7]; Proteus mirabilis, P2381, read-out: minimum inhibitory concentration (MIC)): 6.25 µg/mL (≈ 26.9 µM); MIC [8]: 6.25 µg/mL (≈ 26.9 µM); MIC ([11]; ENTERITIDIS): 3.13 µg/mL (≈ 13.5 µM); MIC ([12]; TYPHIMURIUM): 3.13 µg/mL (≈ 13.5 µM); MIC [13, 50]: 6.25 µg/mL (≈ 26.9 µM); MIC [18, 51]: 25 µg/mL (≈ 108 µM); MIC [20, 52]: 25 µg/mL (≈ 108 µM) |
| CCn1cc(C(=O)O)c(=O)c2cnc(N3CCCC3)nc21 [Compound E, 8-Ethyl-5,8-dihydro-5-oxo-2-(1-pyrrolidinyl)pyrido[2,3-d]pyrimidine-6-carboxylic acid] | 25 (≈ 86.7 µM) | 25 (≈ 86.7 µM) | – | – | 25 (≈ 86.7 µM) | 50 (≈ 173 µM) | 25 (≈ 86.7 µM) | – | – | 25 (≈ 86.7 µM) | 50 (≈ 173 µM) | 12.5 (≈ 43.4 µM) | 12.5 (≈ 43.4 µM) | 12.5 (≈ 43.4 µM) | 12.5 (≈ 43.4 µM) | 12.5 (≈ 43.4 µM) | > 200 | – | 25 (≈ 86.7 µM) | 25 (≈ 86.7 µM) | MIC ([4]; Escherichia coli): 12.5 µg/mL (≈ 43.4 µM); MIC [5, 53]: 12.5 µg/mL (≈ 43.4 µM); MIC [9, 40]: 100 µg/mL (≈ 347 µM); MIC [10, 41]: 100 µg/mL (≈ 347 µM); MIC [18, 51]: 12.5 µg/mL (≈ 43.4 µM); MIC [20, 52]: 12.5 µg/mL (≈ 43.4 µM); MIC [22, 46]: 200 µg/mL (≈ 694 µM) |

Reference: patent US4341784A, “Naphthyridine derivatives” (priority 1979, dated 1982)
